Measured values: PubChem BioAssay AID262 (DTP/NCI, 2004)
“And” between values parts separate entries of the source, which are not always exact repeats. Equal entries are not always repeated.

System: LX-1 lung xenograft sc, nude mice, tumor weight
Experiment: NCI In Vivo Anticancer Drug Screen. Data for tumor model Human Lung LX-1 Xenograft (subcutaneous) in NU/NU Swiss (nude) mice
Details: endpoint: optimum tumor weight change, higher = larger tumour
Method: The antitumor activity of compounds was measured in mice bearing transplantable tumors. Survival or tumor size were measured and the results are expressed as the measurement made in the treated group (T) divided by the measurement made in the vehicle treated control group (C). The tumor model used in this assay is Human Lung LX-1 Xenograft (subcutaneous) in NU/NU Swiss (nude) mice

[1] = dose: 3.13 mg/kg/injection, schedule: Q04DX003 (ip), vehicle: saline
[2] = dose: 6.25 mg/kg/injection, schedule: Q04DX003 (ip), vehicle: saline
[3] = dose: 0.5 mg/kg/injection, schedule: Q04DX003 (ip), vehicle: saline
[4] = dose: 1.0 mg/kg/injection, schedule: Q04DX003 (ip), vehicle: saline
[5] = dose: 4.0 mg/kg/injection, schedule: Q04DX003 (ip), vehicle: saline
[6] = dose: 0.75 mg/kg/injection, schedule: Q04DX003 (ip), vehicle: saline
[7] = dose: 1.5 mg/kg/injection, schedule: Q04DX003 (ip), vehicle: saline
[8] = dose: 25.0 mg/kg/injection, schedule: Q04DX003 (ip), vehicle: Klucel (hydroxypropylcellulose) (HPC)
[9] = dose: 50.0 mg/kg/injection, schedule: Q04DX003 (ip), vehicle: Klucel (hydroxypropylcellulose) (HPC)
[10] = dose: 25.0 mg/kg/injection, schedule: Q04DX003 (ip), vehicle: saline
[11] = dose: 50.0 mg/kg/injection, schedule: Q04DX003 (ip), vehicle: saline
[12] = dose: 12.5 mg/kg/injection, schedule: Q04DX003 (ip), vehicle: saline
[13] = dose: 100.0 mg/kg/injection, schedule: Q04DX003 (ip), vehicle: saline
[14] = dose: 200.0 mg/kg/injection, schedule: Q04DX003 (ip), vehicle: saline with Tween-80
[15] = dose: 400.0 mg/kg/injection, schedule: Q04DX003 (ip), vehicle: saline with Tween-80
[16] = dose: 50.0 mg/kg/injection, schedule: Q04DX003 (ip), vehicle: saline with Tween-80
[17] = dose: 100.0 mg/kg/injection, schedule: Q04DX003 (ip), vehicle: saline with Tween-80

## COc1cc([C@@H]2c3cc4c(c(O)c3C[C@H]3COC(=O)[C@@H]32)OCO4)cc(OC)c1O
[1]
  T/C: 122 % of control
[2]
  T/C: 55 % of control

## COc1cccc2c1C(=O)c1c(O)c3c(c(O)c1C2=O)C[C@@](O)(C(C)=O)C[C@@H]3OC1CC(N)C(O)C(C)O1 (stereo not given in full)
dose: 0.25 mg/kg/injection, schedule: Q04DX003 (ip), vehicle: saline
  T/C: 52 % of control
[3]
  T/C: 39 % of control
[4]
  T/C: 86 % of control

## Cc1c(N)nc(C(CC(N)=O)NCC(N)C(N)=O)nc1C(=O)NC(C(=O)NC(C)C(O)CC(=O)NC(C(=O)NC(OC1OC(C)C(N)C(O)C1O)C(O)c1nc(-c2nc(C(=O)NCCCC(N)CC(=O)NCCCNCCCCN)cs2)cs1)C(C)O)C(OC1OC(CO)C(O)C(O)C1OC1OC(CO)C(O)C(OC(N)=O)C1O)c1cnc[nH]1 (stereo not given)
[5]
  T/C: 52 % of control
dose: 8.0 mg/kg/injection, schedule: Q04DX003 (ip), vehicle: saline
  T/C: 23 % of control

## COC1C(O)CC(OC2CC(OC3CC(O[C@@H]4C(=O)c5c(cc6cc(OC7CC(OC8CC(O)C(O)C(C)O8)C(O)C(C)O7)c(C)c(O)c6c5O)C[C@H]4[C@H](OC)C(=O)[C@@H](O)[C@@H](C)O)OC(C)C3O)OC(C)C2O)OC1C (stereo not given in full)
[6]
  T/C: 104 % of control
[7]
  T/C: 53 % of control and 62 % of control

## CC(=O)OCC(=O)[C@@]12OC(C)(C)O[C@@H]1C[C@H]1[C@@H]3CC(C=O)=C4C=C(OCCCl)CC[C@]4(C)[C@@]3(F)[C@@H](O)C[C@@]12C
[8]
  T/C: 96 % of control
[9]
  T/C: 106 % of control

## O=P1(NCCCl)OCCCN1CCCl (stereo not given)
[2]
  T/C: 26 % of control
[10]
  T/C: 54 % of control
[11]
  T/C: 39 % of control

## CN(CO)c1nc(N(C)CO)nc(N(C)CO)n1
dose: 25.0 mg/kg/injection, schedule: Q01DX005 (ip), vehicle: saline
  T/C: 79 % of control and 226 % of control
dose: 25.0 mg/kg/injection, schedule: Q04DX005 (ip), vehicle: saline
  T/C: 114 % of control
dose: 50.0 mg/kg/injection, schedule: Q01DX005 (ip), vehicle: saline
  T/C: 59 % of control and 73 % of control
dose: 50.0 mg/kg/injection, schedule: Q04DX005 (ip), vehicle: saline
  T/C: 79 % of control and 84 % of control
dose: 50.0 mg/kg/injection, schedule: Q07DX005 (ip), vehicle: saline
  T/C: 29 % of control
dose: 100.0 mg/kg/injection, schedule: Q01DX005 (ip), vehicle: saline
  T/C: 102 % of control and 122 % of control
dose: 100.0 mg/kg/injection, schedule: Q04DX005 (ip), vehicle: saline
  T/C: 93 % of control
dose: 100.0 mg/kg/injection, schedule: Q07DX005 (ip), vehicle: saline
  T/C: 26 % of control and 33 % of control
dose: 200.0 mg/kg/injection, schedule: Q01DX005 (ip), vehicle: saline
  T/C: -5 % of control
dose: 200.0 mg/kg/injection, schedule: Q07DX005 (ip), vehicle: saline
  T/C: 49 % of control and 55 % of control

## C[n+]1c(-c2cccc3ccccc23)c2cc(N)ccc2c2ccccc21
[6]
  T/C: 61 % of control
[7]
  T/C: 57 % of control

## CC(C)CCCCCCCCCCCCC(=O)NCC(=O)NC1C(O)C(O)C(Nc2ncnc3nc[nH]c23)OC1C(O)CO (stereo not given)
dose: 3.0 mg/kg/injection, schedule: Q04DX003 (ip), vehicle: suspension in saline
  T/C: 81 % of control
dose: 12.0 mg/kg/injection, schedule: Q04DX003 (ip), vehicle: suspension in saline
  T/C: 34 % of control

## OC(CBr)C(O)C(O)C(O)CBr (stereo not given)
[8]
  T/C: 98 % of control
[9]
  T/C: 66 % of control

## CNC(=O)ON(C(C)=O)C(=O)NC
[12]
  T/C: 94 % of control
[10]
  T/C: 103 % of control
[11]
  T/C: 71 % of control
[13]
  T/C: 60 % of control

## C=C(C)[C@H]1Cc2c(ccc3c2O[C@@H]2COc4cc(OC)c(OC)cc4[C@@H]2C3=O)O1
[1]
  T/C: 106 % of control
[2]
  T/C: 73 % of control
[12]
  T/C: 91 % of control
[10]
  T/C: 102 % of control

## Cc1c(CNc2ccc(C(=O)NC(CC(=O)O)C(=O)O)cc2)ccc2nc(N)nc(N)c12 (stereo not given)
dose: 6.0 mg/kg/injection, schedule: Q04DX003 (ip), vehicle: saline with Tween-80
  T/C: 63 % of control
dose: 12.0 mg/kg/injection, schedule: Q04DX003 (ip), vehicle: saline with Tween-80
  T/C: 94 % of control
dose: 24.0 mg/kg/injection, schedule: Q04DX003 (ip), vehicle: saline with Tween-80
  T/C: 81 % of control

## CN(N=O)C(=O)N[C@@H](C=O)[C@@H](O)[C@H](O)[C@H](O)CO
[13]
  T/C: 150 % of control
dose: 200.0 mg/kg/injection, schedule: Q04DX003 (ip), vehicle: saline
  T/C: 64 % of control

## CCc1ccccc1N1CCN(C(=O)c2cc(OC)c(OC)c(OC)c2)CC1
[8]
  T/C: 62 % of control and 85 % of control
dose: 100.0 mg/kg/injection, schedule: Q04DX003 (ip), vehicle: Klucel (hydroxypropylcellulose) (HPC)
  T/C: 60 % of control

## O=c1[nH]cnc2n[nH]nc12
dose: 200.0 mg/kg/injection, schedule: Q04DX003 (ip), vehicle: Klucel (hydroxypropylcellulose) (HPC)
  T/C: 111 % of control
dose: 400.0 mg/kg/injection, schedule: Q04DX003 (ip), vehicle: Klucel (hydroxypropylcellulose) (HPC)
  T/C: 59 % of control
dose: 800.0 mg/kg/injection, schedule: Q04DX003 (ip), vehicle: Klucel (hydroxypropylcellulose) (HPC)
  T/C: 94 % of control

## NC(=S)N/N=C/c1ccc(O)cn1
[14]
  T/C: 64 % of control
[15]
  T/C: 76 % of control

## CCC1=C[C@H]2CN(CCc3c([nH]c4ccccc34)[C@@](C(=O)OC)(c3cc4c(cc3OC)N(C)[C@H]3[C@@](O)(C(=O)NC)[C@H](OC(C)=O)[C@]5(CC)C=CCN6CC[C@]43[C@@H]65)C2)C1
dose: 0.25 mg/kg/injection, schedule: Q04DX003 (ip), vehicle: water
  T/C: 69 % of control
dose: 0.5 mg/kg/injection, schedule: Q04DX003 (ip), vehicle: water
  T/C: 40 % of control
dose: 1.0 mg/kg/injection, schedule: Q04DX003 (ip), vehicle: water
  T/C: 98 % of control

## OCC1OC(n2cnc3cncnc32)C(O)C1O (stereo not given)
[10]
  T/C: 83 % of control

## CC(=O)OCC1OC(n2cc(CBr)nn2)C(OC(C)=O)C(OC(C)=O)C1OC(C)=O (stereo not given)
dose: 25.0 mg/kg/injection, schedule: Q04DX003 (ip), vehicle: saline with Tween-80
  T/C: 169 % of control
[16]
  T/C: 61 % of control
[17]
  T/C: 107 % of control
[14]
  T/C: 110 % of control

## COc1cc2c[n+](C)c3c4cc5c(cc4ccc3c2cc1OC)OCO5
dose: 20.0 mg/kg/injection, schedule: Q04DX003 (ip), vehicle: saline with Tween-80
  T/C: 105 % of control
dose: 40.0 mg/kg/injection, schedule: Q04DX003 (ip), vehicle: saline with Tween-80
  T/C: 34 % of control
dose: 80.0 mg/kg/injection, schedule: Q04DX003 (ip), vehicle: saline with Tween-80
  T/C: 54 % of control

## O=C1N(Cl)C(=O)C(c2ccc(Cl)cc2)(c2ccc(Cl)cc2)N1Cl
[17]
  T/C: 66 % of control
[14]
  T/C: 42 % of control

## COc1cccc2c1C(=O)c1c(O)c3c(c(O)c1C2=O)C[C@@](O)(C(=O)CO)C[C@@H]3OC1CC(N)CC(C)O1 (stereo not given in full)
dose: 0.4 mg/kg/injection, schedule: Q04DX003 (ip), vehicle: water
  T/C: 67 % of control
dose: 0.79 mg/kg/injection, schedule: Q04DX003 (ip), vehicle: water
  T/C: 109 % of control
dose: 1.57 mg/kg/injection, schedule: Q04DX003 (ip), vehicle: water
  T/C: 99 % of control
dose: 3.13 mg/kg/injection, schedule: Q04DX003 (ip), vehicle: water
  T/C: 90 % of control

## COc1cccc2c1C(=O)c1c(O)c3c(c(O)c1C2=O)C[C@@](O)(C(=O)CO)C[C@@H]3OC1CC(N)C(O)C(C)O1 (stereo not given in full)
dose: 4.0 mg/kg/injection, schedule: Q04DX003 (ip), vehicle: water
  T/C: 81 % of control

## CC(=O)Oc1ccc[nH]c1=O
[16]
  T/C: 91 % of control
[17]
  T/C: 81 % of control
[15]
  T/C: 76 % of control
dose: 800.0 mg/kg/injection, schedule: Q04DX003 (ip), vehicle: saline with Tween-80
  T/C: 73 % of control

## COc1ccc2c(NCCCCCCCCNc3c4ccccc4nc4cc(OC)ccc34)c3ccccc3nc2c1
dose: 0.5 mg/kg/injection, schedule: Q04DX003 (ip), vehicle: distilled water + alcohol
  T/C: 67 % of control
[3]
  T/C: 60 % of control
dose: 1.0 mg/kg/injection, schedule: Q04DX003 (ip), vehicle: distilled water + alcohol
  T/C: 45 % of control
[4]
  T/C: 61 % of control
dose: 2.0 mg/kg/injection, schedule: Q04DX003 (ip), vehicle: distilled water + alcohol
  T/C: 79 % of control
dose: 2.0 mg/kg/injection, schedule: Q04DX003 (ip), vehicle: saline
  T/C: 86 % of control
dose: 4.0 mg/kg/injection, schedule: Q04DX003 (ip), vehicle: distilled water + alcohol
  T/C: 45 % of control
[5]
  T/C: 65 % of control
